Source: patent publication US20240131032A1, “AN ACTIVITY-GUIDED MAP OF ELECTROPHILE-CYSTEINE INTERACTIONS IN PRIMARY HUMAN IMMUNE CELLS” (The Scripps Research Institute, priority 2019, published 2024)
Each block holds one molecule with its values, some of them ahead of it.

What was measured:
primary human T cells [1] = assay: T cell viability by flow cytometry (near-IR LIVE/DEAD stain); format: cell-based; conditions: concentration-dependent profiles, at <20 μM
Description: FIG. 4A-4D is an overview of a multidimensional screen to identify elaborated electrophilic compounds that suppress T cell activation. FIG. 4A is a workflow for T-cell activation screen. Primary human T cells were treated with a focused library of elaborated electrophilic compounds (10 μM, structures of compounds in FIG. 12), a positive control immunosuppressive compound (DMF, 50 μM), or DMSO under TCR-stimulating conditions in 96-well plates pre-coated with 5 μg/mL αCD3 and 2 μg/mL αCD28 for 24 h. T cell activation was measured using a combination of markers, including IL2 and IFNγ secretion, as well as surface expression of CD25 and CD69. T cell viability was measured by flow cytometry using a Fixable Near-IR LIVE/DEAD™ Cell Stain. Compounds were considered as active hits if they reduced IL2 cytokine production by >65% with <15% reduction in T cell viability in the cytotoxicity assay compared to DMSO control. […] FIG. 4C are structures of active hit compounds selected for follow-up studies, including two acrylamides (BPK-21, BPK-25), two chloroacetamides (EV-3, EV-93) and DMF as a positive control. FIG. 4D are line graphs showing T cell activation and cytotoxicity profiles for selected hit compounds.
Non-tissue culture treated 96-well plates were pre-coated with αCD3 (5 μg/mL) and αCD28 antibodies (2 μg/mL) in PBS (100 μL/well) and left at 4° C. overnight. Freshly isolated T cells were re-suspended in RPMI media supplemented with 10% FBS, L-glutamine (2 mM), penicillin (100 U/mL), and streptomycin ([…]) at 2×10^6 cells/mL. Compound stocks (200×) in DMSO were diluted to 2× stocks in the working RPMI media in another 96-well plate. The pre-coated 96-well treatment plates were washed with PBS ([…]), T cells (100 μL/well, 2×10^5 cells/well) were then added to the wells, followed by the addition of 2× compound stocks in RPMI media (100 μL). The outer wells of the plates were filled with media without cells to avoid the edge effect in the assay. The treatment was done overnight (24 h) at 37° C. in a 5% CO2 containing incubator. Following the treatment, the cells were transferred to a U-bottom 96-well plate and harvested by centrifugation (600 g, 3 min, 4° C.). The supernatants were kept and stored at −80° C. for further cytokine analysis, while the cells were washed with PBS (2×150 μL) prior to staining for flow cytometry analysis.
Following the PBS washes, the cells were stained with fixable near-IR LIVE/DEAD cell stain (Invitrogen) according to manufacturer's instructions. Briefly, one vial of near-IR LIVE/DEAD dye was resuspended in DMSO (50 μL) and diluted with PBS (1:1000). The diluted stain was added to each well (200 μL) and the cells were incubated for 30 min at room temperature in the dark. After this time, the cells were pelleted (600 g, 3 min, 4° C.), washed once with PBS (200 μL/well) and incubated with a freshly made cocktail of antibodies for the appropriate cell surface markers diluted in PBS containing 2% FBS (1:400 antibody dilution).

MYD88 = molecular target: T1, MYD88 (Homo sapiens, UniProt Q99836); assay: isoTOP-ABPP and TMT-ABPP cysteine engagement, MYD88; format: binding; conditions: scout fragments
T1 construct: endogenous in cells
Description: Activated or expanded T cells were re-suspended in RPMI media supplemented with 10% FBS, L-glutamine (2 mM), penicillin (100 U/mL), and streptomycin (100 μg/mL) at 2×10^6 cells/mL. The compounds were added to cells as 1000×DMSO stocks and mixed well with the media by pipetting up and down after addition. The cells were kept at 37° C. in 5% CO2 containing incubators for 3 h (or otherwise specified times), then pelleted by centrifugation (524 g, 5 min, 4° C.), washed with cold PBS (10 mL) and transferred to Eppendorf tubes (1 mL PBS). The cells were pelleted again (524 g, 5 min, 4° C.), flash-frozen, and kept at −80° C. until further analysis.
Activated or expanded primary human T cells were re-suspended in RPMI (1×10^6 cells/mL) containing 10% fetal bovine serum (FBS), penicillin (100 U/mL), streptomycin ([…]), and L-glutamine (2 mM). The cells were treated with DMSO or compounds for 3 h, pelleted (524 g, 5 min), washed with PBS, and lysed by sonication (2×8 pulses). Soluble and particulate proteomic fractions were separated by ultracentrifugation (100,000 g, 45 min), and protein concentration was normalized to 1.7 mg/mL using a standard DC protein assay (Bio-Rad). The resulting proteomes were analyzed by competitive isotopic Tandem Orthogonal Proteolysis Activity-Based Protein Profiling (isoTOP-ABPP). […]
The heavy/light isoTOP-ABPP ratios (R values) for each unique peptide (DMSO/compound treated) were quantified with in-house CIMAGE software (Weerapana et al., 2010) using default parameters (3 MS1 acquisitions per peak and signal to noise threshold set to 2.5). Site-specific engagement of cysteine residues was assessed by blockade of IA-alkyne probe labeling. […] Ratios for unique peptide sequences were calculated for each experiment; overlapping peptides with the same modified cysteine (e.g., different charge states, elution times or tryptic termini) were grouped together and the median ratio was reported as the final ratio (R). […]

PDCD1 = molecular target: T2, PDCD1 (Homo sapiens, UniProt Q15116); assay: TMT-ABPP scout fragment sensitivity, PDCD1; format: binding; conditions: activated T cells; 500 μM, 1 h
T2 construct: endogenous in cells
Excerpt: FIG. 2A-2J provides an overview of chemical proteomic mapping of fragment electrophile-cysteine interactions and reactivity changes in human T cells. […] This protocol was applied to both control and activated T cells. FIG. 2B are structures of scout fragments KB02 and KB05. FIG. 2C-FIG. 2D are pie chart representations of cysteines (C) and proteins (D) liganded with scout fragments. Results were obtained by combining soluble and particulate proteomic fraction data for KB02 and KB05 treatments (500 μM, 1 h) of both control and activated T cells. R-values within each experimental treatment group were derived from 3-5 independent isoTOP-ABPP experiments and 4 independent TMT-ABPP experiments (6 TMT channels). A cysteine was required to be quantified in at least two experiments for each compound treatment or proteomic fraction group to be reported. FIG. 2E are bar graphs showing the total number (left) and percentage (right) of liganded cysteines per total number of cysteines quantified across the indicated reactivity ranges, where cysteine reactivity was determined by isoTOP-ABPP experiments performed with different concentrations of the IA-alkyne probe (10 and 100 μM), as described previously (Weerapana et al., 2010). FIG. 2F are bar graphs showing the total number (left) and percentage (right) of liganded proteins with expression or reactivity changes in activated T cells. […]

BIRC2 = BIRC2 (Homo sapiens, UniProt Q13490, C45A); assay: Western blot of BIRC2 content in human T cells; conditions: EV-3 10 μM, AT-406 1 μM, 24 h; transfected primary human T cells
primary human T cells [2] = assay: Multidimensional screen for inhibition of T cell activation (IL-2, IFN-γ secretion, CD25, CD69 expression); format: cell-based; conditions: anti-CD3/anti-CD28-stimulated T cells
Description: FIG. 4A-4D is an overview of a multidimensional screen to identify elaborated electrophilic compounds that suppress T cell activation. FIG. 4A is a workflow for T-cell activation screen. Primary human T cells were treated with a focused library of elaborated electrophilic compounds (10 μM, structures of compounds in FIG. 12), a positive control immunosuppressive compound (DMF, 50 μM), or DMSO under TCR-stimulating conditions in 96-well plates pre-coated with 5 μg/mL αCD3 and 2 μg/mL αCD28 for 24 h. T cell activation was measured using a combination of markers, including IL2 and IFNγ secretion, as well as surface expression of CD25 and CD69. T cell viability was measured by flow cytometry using a Fixable Near-IR LIVE/DEAD™ Cell Stain. Compounds were considered as active hits if they reduced IL2 cytokine production by >65% with <15% reduction in T cell viability in the cytotoxicity assay compared to DMSO control. […]
The levels of secreted IL2, IFNγ and TNFα after incubating T cells in the presence of DMSO or electrophilic compounds under TCR-stimulating conditions were measured using DuoSet ELISA cytokine kits (R&D Systems) in clear microplates (R&D Systems) according to manufacturer's instructions and read using a CLARIOstar (BMG Labtech) plate reader (450 nm). All cytokine concentrations were calculated according to the standard curve generated for each experiment.

T1 sequence (Q99836 whole entry, the tested form may be a part): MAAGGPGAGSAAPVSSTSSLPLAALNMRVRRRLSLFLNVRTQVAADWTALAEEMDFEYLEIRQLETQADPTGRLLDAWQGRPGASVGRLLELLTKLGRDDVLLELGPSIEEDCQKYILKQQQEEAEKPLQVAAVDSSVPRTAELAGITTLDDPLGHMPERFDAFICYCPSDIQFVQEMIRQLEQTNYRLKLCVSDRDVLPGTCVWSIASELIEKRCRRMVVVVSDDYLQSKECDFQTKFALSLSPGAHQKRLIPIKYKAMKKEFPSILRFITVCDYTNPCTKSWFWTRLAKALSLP
T2 sequence (Q15116 25-288): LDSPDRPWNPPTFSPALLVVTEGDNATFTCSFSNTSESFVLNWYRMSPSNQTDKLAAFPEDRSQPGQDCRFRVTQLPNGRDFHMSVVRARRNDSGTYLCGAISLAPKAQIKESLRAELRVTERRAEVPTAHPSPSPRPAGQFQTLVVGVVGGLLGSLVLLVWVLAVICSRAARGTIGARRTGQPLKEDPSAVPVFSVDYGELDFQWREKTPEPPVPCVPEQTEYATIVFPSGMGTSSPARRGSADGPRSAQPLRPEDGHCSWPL
Chain of BIRC2 (Q13490 whole entry C45A): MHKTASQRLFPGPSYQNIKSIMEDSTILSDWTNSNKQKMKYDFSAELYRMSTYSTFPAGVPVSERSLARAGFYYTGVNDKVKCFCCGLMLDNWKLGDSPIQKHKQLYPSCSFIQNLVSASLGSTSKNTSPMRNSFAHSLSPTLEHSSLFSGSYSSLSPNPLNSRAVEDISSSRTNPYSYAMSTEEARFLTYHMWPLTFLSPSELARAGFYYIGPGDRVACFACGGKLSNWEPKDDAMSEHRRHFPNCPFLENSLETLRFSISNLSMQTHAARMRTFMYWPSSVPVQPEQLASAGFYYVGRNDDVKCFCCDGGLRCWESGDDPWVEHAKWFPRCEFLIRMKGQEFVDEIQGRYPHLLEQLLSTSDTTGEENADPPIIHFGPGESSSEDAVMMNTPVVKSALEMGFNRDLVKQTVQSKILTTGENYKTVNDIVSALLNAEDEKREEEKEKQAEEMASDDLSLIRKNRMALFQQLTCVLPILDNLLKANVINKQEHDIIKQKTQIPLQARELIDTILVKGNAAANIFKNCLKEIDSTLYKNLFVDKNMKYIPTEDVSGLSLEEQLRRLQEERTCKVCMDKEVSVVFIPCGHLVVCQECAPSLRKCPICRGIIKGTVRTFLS

Compound: O=C(c1cccc(N2CCOCC2)c1)N1CCC(N(C(=O)CCl)c2ccccc2)C(Cc2ccccc2)C1 (stereo not drawn) [EV-93]
cytotoxicity (primary human T cells [1]): negligible cytotoxicity

Compound: C=CC(=O)N(c1ccccc1)c1ccc(Br)cc1 [KB05]
modification of MYD88 at either C274 or C280 (tryptic peptide 270-282) (MYD88): covalently modified

modification of MYD88 at either C274 or C280 (tryptic peptide 270-282) (MYD88): covalently modified
sensitivity of C93 of PDCD1 (PDCD1): KB02-sensitivity
Compound: COc1ccc2c(c1)CCCN2C(=O)CCl [KB02]

Compound: CN[C@@H](C)C(=O)N[C@H]1CN(C(=O)CC(C)C)CC[C@H]2CC[C@@H](C(=O)NC(c3ccccc3)c3ccccc3)N2C1=O [AT406]
FLAG-tagged BIRC2 C45A mutant content (BIRC2): still promotes the degradation

Compound: CCCCS(=N)(=O)CCC(N)C(=O)O (stereo not drawn) [BSO, buthionine sulphoximine]
effect on T cell activation (primary human T cells [2]): did not affect T cell activation
